Assay results published in US12390536B2, “Antibody-drug complex containing toll-like receptor 7/8 dual agonist compound” (ASTELLAS PHARMA INC., priority 2022, dated 2025).
Where a name gives a salt, the structure may show the parent alone.

Molecular target: T1, mouse TLR7 (Mus musculus, UniProt P58681)
T1 construct: expressed in transfected cells
T1 sequence (P58681 27-1050): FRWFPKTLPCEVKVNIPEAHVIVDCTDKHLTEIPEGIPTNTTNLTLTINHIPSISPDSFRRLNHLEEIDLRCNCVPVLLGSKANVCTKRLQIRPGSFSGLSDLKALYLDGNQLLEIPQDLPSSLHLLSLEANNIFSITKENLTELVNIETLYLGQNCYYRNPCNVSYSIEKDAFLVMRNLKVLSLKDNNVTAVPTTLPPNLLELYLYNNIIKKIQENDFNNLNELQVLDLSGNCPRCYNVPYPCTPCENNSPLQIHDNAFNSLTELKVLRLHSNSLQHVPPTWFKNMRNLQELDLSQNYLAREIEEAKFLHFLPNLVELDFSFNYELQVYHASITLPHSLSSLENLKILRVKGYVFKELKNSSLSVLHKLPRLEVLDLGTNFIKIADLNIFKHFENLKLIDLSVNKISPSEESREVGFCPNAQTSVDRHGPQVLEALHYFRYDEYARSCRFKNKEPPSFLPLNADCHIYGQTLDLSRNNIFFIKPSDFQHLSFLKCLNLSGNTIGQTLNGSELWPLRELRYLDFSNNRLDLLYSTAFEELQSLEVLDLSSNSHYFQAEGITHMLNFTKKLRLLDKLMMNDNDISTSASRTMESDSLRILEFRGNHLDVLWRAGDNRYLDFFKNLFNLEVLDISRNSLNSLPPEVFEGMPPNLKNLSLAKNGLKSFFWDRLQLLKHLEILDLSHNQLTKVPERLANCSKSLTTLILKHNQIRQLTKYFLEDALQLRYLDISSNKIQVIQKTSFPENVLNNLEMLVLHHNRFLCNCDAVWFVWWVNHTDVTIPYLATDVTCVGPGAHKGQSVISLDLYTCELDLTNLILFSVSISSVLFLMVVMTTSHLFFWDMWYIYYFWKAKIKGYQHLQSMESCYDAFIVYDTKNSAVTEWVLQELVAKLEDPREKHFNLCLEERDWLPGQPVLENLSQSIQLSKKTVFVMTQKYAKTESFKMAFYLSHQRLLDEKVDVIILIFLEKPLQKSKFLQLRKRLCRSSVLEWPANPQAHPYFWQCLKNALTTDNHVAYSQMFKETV
Assay: TLR7/8 reporter assay (HEK293, NFκB Nanoluc luciferase reporter), mouse TLR7
Format: cell-based
Details: 24-hour incubation; read-out: mTLR7 EC50
Protocol: HEK293 cells (ATCC, #CRL-1573) were co-transfected with an expression vector having a nucleotide sequence encoding a TLR (human TLR7, human TLR8 or mouse TLR7) protein and a Nanoluc PEST luciferase reporter vector having an NFκB response element sequence (Genbank: JQ513377 bases 33 to 84) integrated therein. Thereafter, the transfected cells were cultured in DMEM (Sigma-Aldrich, #D5796-500 mL) containing Geneticin (Gibco, #10131-027) at a final concentration of 800 μg/mL, Hygromycin B (Invitrogen, #10687010) at a final concentration of 500 μg/mL, penicillin streptomycin (Gibco, #15070-063) at a final concentration of 1% and a 10% fetal bovine serum (FBS) (HyClone, #SH30084.03) to obtain a stable cell line for expression.
To reporter cells obtained above, DMEM containing 10% FBS was added to prepare a suspension of 1×10^5 cells/mL. The suspension was added to the wells of a 384-well white plate coated with collagen I (hereinafter referred to as “384-well plate”, Corning, #356703) at a rate of 20 μL per well. The cells were cultured in the conditions of 37° C. and 5% CO2, overnight (18 hours) and allowed to adhere to the plate. A test sample was dissolved in DMSO. The solution was diluted by adding DMEM medium containing 10% FBS to the solution such that the concentration becomes 5-fold as high as a final concentration. The diluted DMEM medium was added to the wells of the 384-well plate at a ratio of 5 μL/well. After the medium was further incubated in the conditions of 37° C. and 5% CO2 for 24 hours, the plate was taken out and allowed to stand still at room temperature for 10 minutes. Thereafter, chemiluminescence was measured using Nano-Glo Luciferase Assay System (Promega, #N1120) and EnVision 2104 (PerkinElmer) plate reader. A dose-response curve was prepared for each test sample and the EC50 value was obtained as a concentration at 50% of the maximum signal. In the table, hTLR7 represents human TLR7 and hTLR8 represents human TLR8; and mTLR7 represents mouse TLR7. A data item attached with an asterisk (*) indicates the result of 7 hour-incubation and other data items are the results of 24-hour incubation.

Row | Compound | EC50
1 | CCCCCNc1nc(N)nc2ccn(Cc3ccc(CN4CCNC[C@H]4CF)cc3OC)c12 [Ex1, 5-[(4-{[(2S)-2-(fluoromethyl)piperazin-1-yl]methyl}-2-methoxyphenyl)methyl]-N^4-pentyl-5H-pyrrolo[3,2-d]pyrimidine-2,4-diamine] | 0.00292 µM
2 | CCCCCNc1nc(N)nc2ccn(Cc3ccc(CN4CCN[C@@H](CF)C4)cc3OC)c12 [Ex2, 5-[(4-{[(3R)-3-(fluoromethyl)piperazin-1-yl]methyl}-2-methoxyphenyl)methyl]-N^4-pentyl-5H-pyrrolo[3,2-d]pyrimidine-2,4-diamine (trifluoroacetic acid) salt] | 0.00536 µM
3 | CCCCCNc1nc(N)nc2ccn(Cc3ccc(CNC4CC4)cc3OC)c12 [Ex3, 5-({4-[(cyclopropylamino)methyl]-2-methoxyphenyl}methyl)-N^4-pentyl-5H-pyrrolo[3,2-d]pyrimidine-2,4-diamine] | 0.00617 µM
4 | CCCCCSc1nc(N)nc2ccn(Cc3ccc(CN4CCNCC4)cc3OC)c12 [Ex4, 5-({2-methoxy-4-[(piperazin-1-yl)methyl]phenyl}methyl)-4-(pentylsulfanyl)-5H-pyrrolo[3,2-d]pyrimidin-2-amine] | 0.0399 µM
5 | CCCCCSc1nc(N)nc2ccn(Cc3ccc(CN4CCC[C@H]4CO)cc3OC)c12 [Ex5, {(2S)-1-[(4-{[2-amino-4-(pentylsulfanyl)-5H-pyrrolo[3,2-d]pyrimidin-5-yl]methyl}-3-methoxyphenyl)methyl]pyrrolidin-2-yl}methanol] | 0.0267 µM
6 | CCCCCNc1nc(N)nc2c(Cl)cn(Cc3ccc(CN4CCC[C@H]4CO)cc3OC)c12 [Ex6, {(2S)-1-[(4-{[2-amino-7-chloro-4-(pentylamino)-5H-pyrrolo[3,2-d]pyrimidin-5-yl]methyl}-3-methoxyphenyl)methyl]pyrrolidin-2-yl}methanol] | 0.0101 µM
7 | CCCCCNc1nc(N)nc2c(Br)cn(Cc3ccc(CN4CCC[C@H]4CO)cc3OC)c12 [Ex7, {(2S)-1-[(4-{[2-amino-7-bromo-4-(pentylamino)-5H-pyrrolo[3,2-d]pyrimidin-5-yl]methyl}-3-methoxyphenyl)methyl]pyrrolidin-2-yl}methanol] | 0.0215 µM
8 | CCCCCNc1nc(N)nc2cc(C)n(Cc3ccc(CN4CCNCC4)cc3OC)c12 [Ex8, 5-({2-methoxy-4-[(piperazin-1-yl)methyl]phenyl}methyl)-6-methyl-N^4-pentyl-5H-pyrrolo[3,2-d]pyrimidine-2,4-diamine hydrochloride] | 0.0235 µM
9 | CCCCCNc1nc(N)nc2ccn(Cc3ccc(CC4CCNCC4)cc3OC)c12 [Ex9, 5-({2-methoxy-4-[(piperidin-4-yl)methyl]phenyl}methyl)-N^4-pentyl-5H-pyrrolo[3,2-d]pyrimidine-2,4-diamine] | 0.00481 µM
10 | CCCCCNc1nc(N)nc2ccn(Cc3ccc(CN4CCNC[C@@H]4CF)cc3OC)c12 [Ex10, 5-[(4-{[(2R)-2-(fluoromethyl)piperazin-1-yl]methyl}-2-methoxyphenyl)methyl]-N^4-pentyl-5H-pyrrolo[3,2-d]pyrimidine-2,4-diamine] | 0.00875 µM
11 | COc1cc(CN2CCNC[C@H]2CF)ccc1Cn1ccc2nc(N)nc(SCc3cc(C)on3)c21 [Ex11] | 0.0092 µM
12 | CCCCCNc1nc(N)nc2ccn(Cc3ccc(CNCC4CCC4)cc3OC)c12 [Ex12] | 0.00358 µM
13 | CCCCCSc1nc(N)nc2ccn(Cc3ccc(CN4CC[C@H]4CO)cc3OC)c12 [Ex13] | 0.0174 µM
14 | CCCCCSc1nc(N)nc2ccn(Cc3ccc(CN4CCC(O)CC4)cc3OC)c12 [Ex14] | 0.0273 µM
15 | CCCCCSc1nc(N)nc2ccn(Cc3ccc(CN4CC[C@@H](CN)C4)cc3OC)c12 [Ex15] | 0.111 µM
16 | CCCCCNc1nc(N)nc2c(Cl)cn(Cc3ccc(CN4CC[C@H]4CO)cc3OC)c12 [Ex17] | 0.00711 µM
17 | CCCCCNc1nc(N)nc2c(Cl)cn(Cc3ccc(CN4CCC[C@H]4C(C)(C)O)cc3OC)c12 [Ex18] | 0.0139 µM
